From patent US7923461B2, “TNF-α production inhibitors” (Santen Pharmaceutical Co., Ltd., priority 2000, dated 2011)

The molecules below were run on TNF-α production (assay: Inhibitory effects on TNF-α production induced by lipopolysaccharide (LPS) stimulation, in vivo test). Details: Rattus norvegicus, 2 h; female rats, oral administration of 3 mg/kg immediately after LPS to footpad; plasma TNF-α (ELISA) two hours after LPS; read-out: Inhibition rate (%) of TNF-α production.
Design: species or system rat
Protocol: Inhibitory effects on TNF-α production induced by lipopolysaccharide (LPS) stimulation were studied by in vivo tests according to the method of Tsuji et al. (Inflamm res. 46 (1997) 193-198).
Female rats (five per group), body weight of about 200 g, about eight weeks old, were used as test animals. LPS from Salmonella was dissolved in physiological saline to prepare an LPS solution (1 mg/ml). Each test substance was dissolved or uniformly suspended in a 1% methylcellulose solution to give test substance-preparation liquids.
The above-mentioned LPS solution (0.5 ml/kg) was administered to a footpad of the rat. Immediately after the LPS administration, the test substance-preparation liquid (containing 10 mg/kg or 3 mg/kg test substance) was orally administered. Two hours after the LPS administration, blood was collected from abdominal aorta and was centrifuged at 4° C. and 3000 rpm for ten minutes. TNF-α levels in the obtained plasma were measured with a rat TNF-α-specific ELISA kit. TNF-α was not observed in the plasma with respect to an LPS-non-administered group (control).
Inhibition rates of TNF-α production of the test substances were determined by the following equation. Inhibition rate (%)=[(A−B)/A]×100 A: TNF-α level in plasma of test substance-nonadministered group B: TNF-α level in plasma of test substance-administered group (Results)

Q: How did the inhibition in vivo at 3 mg/kg turn out when CCCCCN(CCC12CC3CC(CC(C3)C1)C2)C(=O)NC[C@@H]1C[C@@H]1c1ccncc1 (relative stereo) [Compound No. 15-1, cis 1-[2-(1-Adamantyl)ethyl]-1-pentyl-3-[2-(4-pyridyl)cyclopropylmethyl]urea] was run?
A: 73.8%

Q: Which inhibition in vivo at 3 mg/kg does the source give for CCCCN(CCCC)C(=O)NCCCc1ccncc1 [Compound No. 1-10, 1,1-Dibutyl-3-[3-(4-pyridyl)propyl]urea] here?
A: 63%

Q: With C=CCCCCCCN(CCCCCCC=C)C(=O)NCCCc1ccncc1 [Compound No. 1-95, 1,1-Di(7-octenyl)-3-[3-(4-pyridyl)propyl]urea] as the molecule, how does the inhibition in vivo at 3 mg/kg read?
A: 70.8%

Q: For CCCCCN(CCC12CC3CC(CC(C3)C1)C2)C(=O)NC/C=C\c1ccncc1 [Compound No. 1-111, (Z)-1-[2-(1-Adamantyl)ethyl]-1-pentyl-3-[3-(4-pyridyl)-2-propenyl]urea], which inhibition in vivo at 3 mg/kg is on record?
A: 85.1%

Same assay, conditions: Rattus norvegicus, 2 h; female rats, oral administration of 10 mg/kg immediately after LPS to footpad; plasma TNF-α (ELISA) two hours after LPS; read-out: Inhibition rate (%) of TNF-α production

Q: CCCCCN(CCC12CC3CC(CC(C3)C1)C2)C(=O)NCC(C)Cc1ccncc1 (single isomer, unassigned; (-)) [Compound No. 1-120, (−)-1-[2-(1-Adamantyl)ethyl]-3-[2-methyl-3-(4-pyridyl)propyl]-1-pentylurea] was tested. Which inhibition in vivo at 10 mg/kg did it give?
A: 95.1%

Q: For CCCCCN(CCC12CC3CC(CC(C3)C1)C2)C(=O)NCCCc1ccncc1 [Compound No. 1-1, 1-[2-(1-Adamantyl)ethyl]-1-pentyl-3-[3-(4-pyridyl)propyl]urea], which inhibition in vivo at 10 mg/kg is on record?
A: 92.1%

Q: How did the inhibition in vivo at 10 mg/kg turn out when N#CCN(CCC12CC3CC(CC(C3)C1)C2)C(=O)NCCCc1ccncc1 [Compound No. 1-20, 1-[2-(1-Adamantyl)ethyl]-1-cyanomethyl-3-[3-(4-pyridyl)propyl]urea] was run?
A: 60%

Q: How did the inhibition in vivo at 10 mg/kg turn out when CN(CCN(CCC12CC3CC(CC(C3)C1)C2)C(=O)NCCCc1ccncc1)C(=O)OC(C)(C)C [Compound No. 1-26, 1-[2-(1-Adamantyl)ethyl]-1-[2-[N-(t-butoxycarbonyl)-N-methylamino]ethyl]-3-[3-(4-pyridyl)propyl]urea] was run?
A: 95.5%

Q: With O=C(NCCCc1ccncc1)N(CCC12CC3CC(CC(C3)C1)C2)OCc1ccccc1 [Compound No. 1-28, 1-[2-(1-Adamantyl)ethyl]-1-benzyloxy-3-[3-(4-pyridyl)propyl]urea] as the molecule, how does the inhibition in vivo at 10 mg/kg read?
A: 90.4%

Q: CCCN(CCCC12CC3CC(CC(C3)C1)C2)C(=O)NCCCc1ccncc1 [Compound No. 1-35, 1-[3-(1-Adamantyl)propyl]-1-propyl-3-[3-(4-pyridyl)propyl]urea] was tested. Which inhibition in vivo at 10 mg/kg did it give?
A: 82.5%

Q: With Cc1nc(CN(CCC23CC4CC(CC(C4)C2)C3)C(=O)NCCCc2ccncc2)cs1 [Compound No. 1-37, 1-[2-(1-Adamantyl)ethyl]-1-(2-methylthiazol-4-yl)methyl-3-[3-(4-pyridyl)propyl]urea] as the molecule, how does the inhibition in vivo at 10 mg/kg read?
A: 84.3%

Q: With CCCCCN(CCCCC)C(=O)NCCCc1ccncc1 [Compound No. 1-38, 1,1-Dipentyl-3-[3-(4-pyridyl)propyl]urea] as the molecule, how does the inhibition in vivo at 10 mg/kg read?
A: 92.3%

Q: With CCCCCN(CCC1CCCCC1)C(=O)NCCCc1ccncc1 [Compound No. 1-44, 1-(2-Cyclohexylethyl)-1-pentyl-3-[3-(4-pyridyl)propyl]urea] as the molecule, how does the inhibition in vivo at 10 mg/kg read?
A: 93.7%

Q: Which inhibition in vivo at 10 mg/kg does the source give for CCCCCN(CCc1ccccc1)C(=O)NCCCc1ccncc1 [Compound No. 1-45, 1-Pentyl-1-phenethyl-3-[3-(4-pyridyl)propyl]urea] here?
A: 91.1%

Q: Which inhibition in vivo at 10 mg/kg does the source give for CCCCCN(CCc1ccccn1)C(=O)NCCCc1ccncc1 [Compound No. 1-55, 1-Pentyl-1-[2-(2-pyridyl)ethyl]-3-[3-(4-pyridyl)propyl]urea] here?
A: 78.1%

Q: CCCN(CCC12CC3CC(CC(C3)C1)C2)C(=O)CCCCc1ccncc1 [Compound No. 2-1, 5-(4-Pyridyl)valeric acid N-[2-(1-adamantyl)ethyl]-N-propylamide] was tested. Which inhibition in vivo at 10 mg/kg did it give?
A: 91.5%

Same assay, conditions: female rats, oral administration of 3 mg/kg immediately after LPS to footpad; plasma TNF-α (ELISA) two hours after LPS

Q: Which “Inhibition rate (%) of TNF-α production” value does the source give for CCCCCN(CCN(C)C(=O)OCc1ccccc1)C(=O)NCCCc1ccncc1 [Compound No. 1-78, [2-(N-Benzyloxycarbonyl-N-methylamino)ethyl]-1-pentyl-3-[3-(4-pyridyl)propyl]urea] here?
A: 61.5%
